EC50 data for 68 compounds are collected here from patent US9822131B2, “Certain chemical entities, compositions and methods” (Intellikine LLC, priority 2008, dated 2017).

The experiment deals with Balb/c splenic B cells. In words: B cell activation and proliferation assay (Alamar Blue). It is filed as cell-based. As to conditions: Mus musculus, read-out: B cell proliferation EC50. (In general: Alamar Blue is a resazurin reagent that responds to reducing activity.)

Where only a bound is given, the exact number is not on record here.

Procedure: The assay is performed in a 96 well microtiter plate using Alamar Blue reduction. Balb/c splenic B cells are purified over a Ficoll-Paque™ PLUS gradient followed by magnetic cell separation using a MACS B cell Isolation Kit (Miletenyi). Cells are plated in 90 ul at 50,000 cells/well in B Cell Media (RPMI+10% FBS+Penn/Strep+50 uM bME+5 mM HEPES). A compound disclosed herein is diluted in B Cell Media and added in a 10 ul volume. Plates are incubated for 30 min at 37 C and 5% CO2 (0.2% DMSO final concentration). A 50 ul B cell stimulation cocktail is then added containing either 10 ug/ml LPS or 5 ug/ml F(ab′)2 Donkey anti-mouse IgM plus 2 ng/ml recombinant mouse IL4 in B Cell Media. […] A volume of 15 uL of Alamar Blue reagent is added to each well and plates are incubated for 5 hours at 37 C and 5% CO2. Alamar Blue fluoresce is read at 560Ex/590Em, and IC50 or EC50 values are calculated using GraphPad Prism 5.

As to `Cc1cccc2cc(Cn3cnc4c(N)ncnc43)n(-c3ccccc3F)c(=O)c12` [Compound 1], the EC50 is under 10 µM. The figure for `Cc1cccc2cc(Cn3nc(I)c4c(N)ncnc43)n(-c3ccccc3F)c(=O)c12` [Compound 2] is under 10 µM; for `Cc1cccc2cc(Cn3nc(-c4cc(O)cc(F)c4)c4c(N)ncnc43)n(-c3ccccc3F)c(=O)c12` [Compound 3] it is under 0.1 µM; for `Cc1cccc2cc(Cn3nc(C#CC4CC4)c4c(N)ncnc43)n(-c3ccccc3F)c(=O)c12` [Compound 4] it is under 1 µM.

Take `Cc1ccccc1-n1c(Cn2cnc3c(N)ncnc32)cc2cccc(C)c2c1=O` [Compound 5]: the EC50 was under 10 µM. The figure for `Cc1cccc2cc(Cn3nc(C#CCO)c4c(N)ncnc43)n(-c3ccccc3F)c(=O)c12` [Compound 8] is under 1 µM. Consider `Cc1cccc2cc(Cn3nc(-c4ccc(F)c(O)c4)c4c(N)ncnc43)n(-c3ccccc3F)c(=O)c12` [Compound 9], for which the EC50 is under 1 µM. For the compound `Cc1cccc2cc(Cn3nc(-c4cccc(O)c4)c4c(N)ncnc43)n(-c3ccccc3F)c(=O)c12` [Compound 10], the EC50 is under 1 µM. For `Cc1ccccc1-n1c(Cn2nc(C#CCO)c3c(N)ncnc32)cc2cccc(C)c2c1=O` [Compound 11] the value was under 1 µM. The figure for `Cc1ccccc1-n1c(Cn2nc(-c3ccc(F)c(O)c3)c3c(N)ncnc32)cc2cccc(C)c2c1=O` [Compound 12] is under 0.1 µM. The figure for `Cc1ccccc1-n1c(Cn2nc(C#CC3CC3)c3c(N)ncnc32)cc2cccc(C)c2c1=O` [Compound 14] is under 1 µM; for `Cc1cccnc1-n1c(Cn2nc(I)c3c(N)ncnc32)cc2cccc(C)c2c1=O` [Compound 15] it is under 1 µM; for `Cc1cccnc1-n1c(Cn2nc(-c3cc(O)cc(F)c3)c3c(N)ncnc32)cc2cccc(C)c2c1=O` [Compound 16] it is under 0.1 µM. With `Cc1cccnc1-n1c(Cn2nc(Br)c3c(N)ncnc32)cc2cccc(C)c2c1=O` [Compound 17], the EC50 was under 0.1 µM. For the compound `Cc1cccnc1-n1c(Cn2nc(Cl)c3c(N)ncnc32)cc2cccc(C)c2c1=O` [Compound 18], the EC50 was under 1 µM.

In the case of `Cc1ccccc1-n1c(Cn2nc(Br)c3c(N)ncnc32)cc2cccc(C)c2c1=O` [Compound 19], the EC50 was under 1 µM. For `Cc1ccccc1-n1c(Cn2nc(Cl)c3c(N)ncnc32)cc2cccc(C)c2c1=O` [Compound 20] the value was under 1 µM; for `COc1cc(-c2nn(Cc3cc4cccc(C)c4c(=O)n3-c3ccccc3C)c3ncnc(N)c23)ccc1Cl` [Compound 21], under 1 µM; for `COc1cc(-c2nn(Cc3cc4cccc(C)c4c(=O)n3-c3ccccc3F)c3ncnc(N)c23)ccc1Cl` [Compound 22], under 10 µM. The figure for `Cc1ccccc1-n1c(Cn2nc(-c3ccc(Cl)c(O)c3)c3c(N)ncnc32)cc2cccc(C)c2c1=O` [Compound 23] is under 0.1 µM; for `Cc1cccc2cc(Cn3nc(-c4ccc(Cl)c(O)c4)c4c(N)ncnc43)n(-c3ccccc3F)c(=O)c12` [Compound 24] it is under 1 µM; for `Cc1ccccc1-n1c(Cn2nc(-c3ccc(O)c(Cl)c3)c3c(N)ncnc32)cc2cccc(C)c2c1=O` [Compound 25] it is under 1 µM.

As to `Cc1cccc2cc(Cn3nc(-c4ccc(O)c(Cl)c4)c4c(N)ncnc43)n(-c3ccccc3F)c(=O)c12` [Compound 26], the EC50 was under 10 µM.

As to `Cc1ccccc1-n1c(Cn2nc(-c3ccc(F)cc3)c3c(N)ncnc32)cc2cccc(C)c2c1=O` [Compound 27], the EC50 is under 10 µM.

Consider `Cc1cccc2cc(Cn3nc(C#C[C@@H](C)O)c4c(N)ncnc43)n(-c3ccccc3F)c(=O)c12` [Compound 28], for which the EC50 is under 1 µM. For `Cc1cccc2cc(Cn3nc(-c4ccc(O)c(F)c4)c4c(N)ncnc43)n(-c3ccccc3F)c(=O)c12` [Compound 29] the value was under 1 µM; for `Cc1ccccc1-n1c(Cn2nc(-c3ccc(O)c(F)c3)c3c(N)ncnc32)cc2cccc(C)c2c1=O` [Compound 30], under 1 µM. With `Cc1ccccc1-n1c(Cn2nc(I)c3c(N)ncnc32)cc2ccccc2c1=O` [Compound 31], the EC50 was under 1 µM. For `Cc1ccccc1-n1c(Cn2nc(C#C[C@@H](C)O)c3c(N)ncnc32)cc2ccccc2c1=O` [Compound 32] the value was under 1 µM; for `Cc1cccc2cc(Cn3nc(Cl)c4c(N)ncnc43)n(-c3ccccc3F)c(=O)c12` [Compound 34], under 1 µM. As for `Cc1cccc2cc(Cn3nc(Br)c4c(N)ncnc43)n(-c3ccccc3F)c(=O)c12` [Compound 35], the EC50 was under 1 µM. With `Cc1ccccc1-n1c(Cn2nc(-c3ccc(O)cc3)c3c(N)ncnc32)cc2cccc(C)c2c1=O` [Compound 36], the EC50 was under 1 µM.

Turning to `Cc1ccccc1-n1c(Cn2nc(C#C[C@@H](C)O)c3c(N)ncnc32)cc2cccc(C)c2c1=O` [Compound 37], the EC50 was under 0.1 µM. For `Cc1cccc2cc(Cn3nc(-c4cccc(Cl)c4)c4c(N)ncnc43)n(-c3ccccc3F)c(=O)c12` [Compound 38] the value was over 10 µM; for `Cc1ccccc1-n1c(Cn2nc(-c3cccc(Cl)c3)c3c(N)ncnc32)cc2cccc(C)c2c1=O` [Compound 39], under 10 µM. The figure for `Cc1cccc2cc(Cn3nc(-c4cccc(F)c4)c4c(N)ncnc43)n(-c3ccccc3F)c(=O)c12` [Compound 40] is under 10 µM. The figure for `Cc1ccccc1-n1c(Cn2nc(-c3cccc(F)c3)c3c(N)ncnc32)cc2cccc(C)c2c1=O` [Compound 41] is under 1 µM; for `Cc1ccccc1-n1c(Cn2nc(I)c3c(N)ncnc32)cc2cccc(F)c2c1=O` [Compound 42] it is under 1 µM. In the case of `Cc1ccccc1-n1c(Cn2nc(C#C[C@@H](C)O)c3c(N)ncnc32)cc2cccc(F)c2c1=O` [Compound 43], the EC50 was under 10 µM. For `COc1ccc(-c2nn(Cc3cc4cccc(C)c4c(=O)n3-c3ccccc3C)c3ncnc(N)c23)cc1OC` [Compound 44] the value was under 0.1 µM; for `COc1ccc(-c2nn(Cc3cc4cccc(C)c4c(=O)n3-c3ccccc3C)c3ncnc(N)c23)cc1` [Compound 45], under 1 µM; for `Cc1cccc2cc(Cn3nc(-c4ccc(O)cc4)c4c(N)ncnc43)n(-c3ccccc3F)c(=O)c12` [Compound 46], under 1 µM. Turning to `COc1ccc(-c2nn(Cc3cc4cccc(C)c4c(=O)n3-c3ccccc3F)c3ncnc(N)c23)cc1OC` [Compound 47], the EC50 is under 1 µM. On to `Cc1ccccc1-n1c(Cn2nc(-c3cnc4[nH]ccc4c3)c3c(N)ncnc32)cc2cccc(C)c2c1=O` [Compound 48], for which the EC50 was under 0.1 µM. The figure for `Cc1ccccc1-n1c(Cn2nc(-c3ccc(Cl)cc3)c3c(N)ncnc32)cc2cccc(C)c2c1=O` [Compound 49] is under 10 µM; for `Cc1ccccc1-n1c(Cn2nc(-c3ccc4cc[nH]c4c3)c3c(N)ncnc32)cc2cccc(C)c2c1=O` [Compound 50] it is under 1 µM. For `Cc1ccccc1-n1c(Cn2nc(-c3cccc(O)c3)c3c(N)ncnc32)cc2ccccc2c1=O` [Compound 51] the value was under 1 µM; for `Cc1ccccc1-n1c(Cn2nc(-c3ccc(F)c(O)c3)c3c(N)ncnc32)cc2ccccc2c1=O` [Compound 54], under 0.1 µM.

As for `Cc1ccccc1-n1c(Cn2nc(-c3cc(O)cc(F)c3)c3c(N)ncnc32)cc2cccc(F)c2c1=O` [Compound 55], the EC50 is under 0.1 µM.

For `Cc1cccc2cc(Cn3nc(I)c4c(N)ncnc43)n(C3CCCC3)c(=O)c12` [Compound 57], the EC50 is under 10 µM. Regarding `Cc1cccc2cc(Cn3nc(C#C[C@@H](C)O)c4c(N)ncnc43)n(C(C)C)c(=O)c12` [Compound 61], the EC50 is under 1 µM.

On to `Cc1cccc2cc(Cn3nc(-c4cccc(O)c4)c4c(N)ncnc43)n(C(C)C)c(=O)c12` [Compound 62], for which the EC50 is under 0.1 µM. The figure for `Cc1cccc2cc(Cn3nc(-c4cc(O)cc(F)c4)c4c(N)ncnc43)n(C3CCCC3)c(=O)c12` [Compound 63] is under 0.1 µM; for `Cc1cccc2cc(Cn3nc(-c4cc(O)cc(F)c4)c4c(N)ncnc43)n(C(C)C)c(=O)c12` [Compound 66] it is under 0.1 µM. The figure for `Cc1cccc2cc(Cn3nc(-c4ccc(F)c(O)c4)c4c(N)ncnc43)n(C(C)C)c(=O)c12` [Compound 67] is under 0.1 µM; for `Cc1cccnc1-n1c(Cn2nc(-c3ccc(F)c(O)c3)c3c(N)ncnc32)cc2cccc(C)c2c1=O` [Compound 68] it is under 0.1 µM; for `Cc1cccnc1-n1c(Cn2nc(C#C[C@@H](C)O)c3c(N)ncnc32)cc2cccc(C)c2c1=O` [Compound 69] it is under 1 µM. On to `COc1ccccc1-n1c(Cn2nc(I)c3c(N)ncnc32)cc2cccc(C)c2c1=O` [Compound 70], for which the EC50 was under 1 µM.

Consider `Cc1cccc2cc(Cn3nc(-c4ccc(Cl)c(O)c4)c4c(N)ncnc43)n(C3CCCC3)c(=O)c12` [Compound 71], for which the EC50 is under 10 µM. In the case of `Cc1cccnc1-n1c(Cn2nc(-c3ccc(Cl)c(O)c3)c3c(N)ncnc32)cc2cccc(C)c2c1=O` [Compound 72], the EC50 is under 0.1 µM.

As to `Cc1cccnc1-n1c(Cn2nc(-c3cccc(O)c3)c3c(N)ncnc32)cc2cccc(C)c2c1=O` [Compound 73], the EC50 is under 0.1 µM. For `COc1ccccc1-n1c(Cn2nc(-c3cccc(O)c3)c3c(N)ncnc32)cc2cccc(C)c2c1=O` [Compound 74] the value was under 0.1 µM; for `Cc1cccc2cc(Cn3nc(I)c4c(N)ncnc43)n(-c3ccccc3C(C)C)c(=O)c12` [Compound 75], under 0.1 µM. For `Cc1cccc2cc(Cn3nc(I)c4c(N)ncnc43)n(-c3ccccc3Cl)c(=O)c12` [Compound 76] the value was under 1 µM; for `CCc1ccccc1-n1c(Cn2nc(I)c3c(N)ncnc32)cc2cccc(C)c2c1=O` [Compound 77], under 1 µM; for `Cc1ccncc1-n1c(Cn2nc(I)c3c(N)ncnc32)cc2cccc(C)c2c1=O` [Compound 78], under 1 µM. Regarding `Cc1cccc2cc(Cn3nc(I)c4c(N)ncnc43)n(-c3ccccc3O)c(=O)c12` [Compound 79], the EC50 was under 1 µM. For `COc1ccccc1-n1c(Cn2nc(C#C[C@@H](C)O)c3c(N)ncnc32)cc2cccc(C)c2c1=O` [Compound 80] the value was under 1 µM.
